Where two headings read alike, the source gives them in different places. Where no end group is shown, it is not given here.
Experiments:
Assay type in all cases: cell-based
[1] = tested on: Human Embryonic Kidney 293T (HEK) cells; assay: Ultrasound-evoked GCaMP6f calcium response of HEK cells transfected with candidate channels (screen and TRPA1 variants); details: for Response to ultrasound stimulation (cells activated, GCaMP6f): transfected GCaMP6f HEK cells, 6.91 MHz, screen at 100 msecs, 1.5 MPa
hsTRPA1 [2] = target: T1, hsTRPA1 (Homo sapiens, UniProt O75762); assay: Effect of agents on ultrasound-evoked GCaMP6f response of hsTRPA1-expressing HEK cells
T1 construct: HEK cells transfected with either full-length hsTRPA1 or channels containing deletions; porcine teschovirus-1 2A self-cleaving peptide (p2A) linking the channel to dTomato in a bicistronic vector (cleaved yes); host or cells: HEK 293T cells expressing human alpha-v beta-3 integrin and stably expressing GCaMP6f
T1 sequence (O75762 whole entry): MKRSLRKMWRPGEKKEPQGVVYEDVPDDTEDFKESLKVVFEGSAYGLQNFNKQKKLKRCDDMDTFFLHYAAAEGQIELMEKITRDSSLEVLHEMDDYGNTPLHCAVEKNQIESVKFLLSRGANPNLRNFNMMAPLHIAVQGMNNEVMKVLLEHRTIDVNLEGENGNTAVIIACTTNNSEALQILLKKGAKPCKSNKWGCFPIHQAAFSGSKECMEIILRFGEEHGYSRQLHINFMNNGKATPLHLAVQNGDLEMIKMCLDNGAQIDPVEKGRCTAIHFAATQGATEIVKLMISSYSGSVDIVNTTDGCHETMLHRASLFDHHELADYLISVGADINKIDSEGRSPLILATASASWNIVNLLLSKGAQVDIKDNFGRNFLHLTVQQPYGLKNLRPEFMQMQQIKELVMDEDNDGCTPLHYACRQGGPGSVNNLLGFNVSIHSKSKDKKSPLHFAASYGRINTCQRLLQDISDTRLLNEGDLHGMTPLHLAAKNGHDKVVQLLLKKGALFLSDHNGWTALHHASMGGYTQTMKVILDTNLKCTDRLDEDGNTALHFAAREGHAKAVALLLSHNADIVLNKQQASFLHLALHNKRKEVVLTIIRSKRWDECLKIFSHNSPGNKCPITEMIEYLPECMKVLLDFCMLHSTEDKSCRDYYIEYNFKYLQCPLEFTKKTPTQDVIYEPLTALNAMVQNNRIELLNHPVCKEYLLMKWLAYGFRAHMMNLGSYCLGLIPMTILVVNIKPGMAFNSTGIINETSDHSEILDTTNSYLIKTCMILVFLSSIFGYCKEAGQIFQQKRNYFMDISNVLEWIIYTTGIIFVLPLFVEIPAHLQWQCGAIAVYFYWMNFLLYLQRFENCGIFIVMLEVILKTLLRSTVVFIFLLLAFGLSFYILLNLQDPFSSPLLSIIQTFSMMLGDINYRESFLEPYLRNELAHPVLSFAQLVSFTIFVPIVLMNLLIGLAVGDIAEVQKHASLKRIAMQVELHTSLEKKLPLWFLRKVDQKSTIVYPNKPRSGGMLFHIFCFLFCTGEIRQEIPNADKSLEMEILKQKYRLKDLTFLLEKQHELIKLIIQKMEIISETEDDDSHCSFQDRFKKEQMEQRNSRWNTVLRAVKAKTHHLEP

hsTRPA1 [3] = target: T1, hsTRPA1; assay: Effect of agents on AITC-triggered GCaMP6f response of hsTRPA1-expressing HEK cells; details: AITC 33 μM; after incubation with agent; versus vehicle
mouse-Piezol = mouse-Piezol (Mus musculus, UniProt E2JF22); details: yoda-1 10 μM
Sequence of mouse-Piezol (E2JF22 whole entry): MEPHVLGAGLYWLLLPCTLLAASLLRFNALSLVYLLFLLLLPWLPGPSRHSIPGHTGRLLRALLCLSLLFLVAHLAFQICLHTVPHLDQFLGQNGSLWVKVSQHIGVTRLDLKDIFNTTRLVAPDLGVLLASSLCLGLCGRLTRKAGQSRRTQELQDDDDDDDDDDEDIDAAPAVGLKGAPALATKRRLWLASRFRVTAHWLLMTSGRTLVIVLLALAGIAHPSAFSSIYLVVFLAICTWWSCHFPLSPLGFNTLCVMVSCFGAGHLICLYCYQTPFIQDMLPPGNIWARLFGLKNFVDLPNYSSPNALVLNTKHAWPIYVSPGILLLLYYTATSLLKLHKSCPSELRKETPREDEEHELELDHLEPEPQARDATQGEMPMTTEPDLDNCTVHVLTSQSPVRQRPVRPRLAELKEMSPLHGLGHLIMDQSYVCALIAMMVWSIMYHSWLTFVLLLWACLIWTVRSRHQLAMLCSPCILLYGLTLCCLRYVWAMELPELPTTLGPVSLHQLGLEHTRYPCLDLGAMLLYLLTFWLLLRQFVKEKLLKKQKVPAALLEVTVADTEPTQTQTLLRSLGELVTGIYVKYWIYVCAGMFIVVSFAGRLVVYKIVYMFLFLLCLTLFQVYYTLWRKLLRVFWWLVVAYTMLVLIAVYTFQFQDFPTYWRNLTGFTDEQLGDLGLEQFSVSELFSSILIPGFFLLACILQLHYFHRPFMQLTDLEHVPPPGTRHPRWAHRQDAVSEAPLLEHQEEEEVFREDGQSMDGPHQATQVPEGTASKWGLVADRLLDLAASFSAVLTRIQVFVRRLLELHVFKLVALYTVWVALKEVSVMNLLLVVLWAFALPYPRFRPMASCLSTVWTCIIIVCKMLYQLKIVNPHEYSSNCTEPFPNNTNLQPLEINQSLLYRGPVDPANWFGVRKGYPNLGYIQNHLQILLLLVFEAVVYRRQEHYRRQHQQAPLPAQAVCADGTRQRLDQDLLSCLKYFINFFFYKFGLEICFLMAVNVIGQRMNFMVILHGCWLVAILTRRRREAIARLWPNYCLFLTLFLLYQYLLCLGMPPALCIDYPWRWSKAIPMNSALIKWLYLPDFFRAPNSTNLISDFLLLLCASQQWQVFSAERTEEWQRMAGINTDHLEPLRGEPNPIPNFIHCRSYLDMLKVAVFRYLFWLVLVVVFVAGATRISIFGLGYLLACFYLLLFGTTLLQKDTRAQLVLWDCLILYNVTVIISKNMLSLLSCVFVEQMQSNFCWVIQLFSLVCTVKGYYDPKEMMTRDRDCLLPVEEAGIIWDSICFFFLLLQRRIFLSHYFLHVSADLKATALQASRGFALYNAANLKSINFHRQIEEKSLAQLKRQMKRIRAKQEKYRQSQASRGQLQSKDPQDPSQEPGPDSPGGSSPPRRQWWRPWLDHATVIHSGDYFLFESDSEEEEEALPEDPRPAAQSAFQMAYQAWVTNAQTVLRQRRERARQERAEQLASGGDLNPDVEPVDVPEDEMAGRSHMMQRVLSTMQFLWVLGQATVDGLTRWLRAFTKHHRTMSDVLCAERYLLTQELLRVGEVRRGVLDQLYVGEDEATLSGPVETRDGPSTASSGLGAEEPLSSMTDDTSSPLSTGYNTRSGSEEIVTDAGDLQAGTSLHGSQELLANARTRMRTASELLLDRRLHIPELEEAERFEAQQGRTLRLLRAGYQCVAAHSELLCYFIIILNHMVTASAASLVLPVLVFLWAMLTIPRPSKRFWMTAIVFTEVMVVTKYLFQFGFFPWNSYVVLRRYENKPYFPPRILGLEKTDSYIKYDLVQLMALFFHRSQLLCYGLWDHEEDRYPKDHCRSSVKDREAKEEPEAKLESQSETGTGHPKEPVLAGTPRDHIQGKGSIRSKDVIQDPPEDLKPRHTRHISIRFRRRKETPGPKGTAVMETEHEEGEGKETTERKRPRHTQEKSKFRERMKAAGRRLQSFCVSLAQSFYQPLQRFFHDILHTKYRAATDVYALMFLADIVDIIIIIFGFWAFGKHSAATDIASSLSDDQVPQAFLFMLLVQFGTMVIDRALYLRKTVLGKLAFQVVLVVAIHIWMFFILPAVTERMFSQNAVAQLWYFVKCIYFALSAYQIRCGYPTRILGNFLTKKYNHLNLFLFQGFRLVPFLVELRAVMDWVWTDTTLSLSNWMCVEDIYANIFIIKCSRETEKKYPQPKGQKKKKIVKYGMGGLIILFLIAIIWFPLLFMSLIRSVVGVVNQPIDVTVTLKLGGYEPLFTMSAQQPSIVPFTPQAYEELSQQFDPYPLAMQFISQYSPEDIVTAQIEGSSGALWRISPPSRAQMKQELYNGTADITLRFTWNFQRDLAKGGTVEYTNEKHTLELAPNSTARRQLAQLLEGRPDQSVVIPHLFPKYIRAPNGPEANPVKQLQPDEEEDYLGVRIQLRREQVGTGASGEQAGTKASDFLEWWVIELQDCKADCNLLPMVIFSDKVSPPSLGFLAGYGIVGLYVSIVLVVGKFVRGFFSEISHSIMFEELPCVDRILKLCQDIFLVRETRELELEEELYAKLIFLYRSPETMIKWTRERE

hsTRPA1 [4] = target: T1, hsTRPA1; assay: Agonist activation of hsTRPA1-expressing HEK cells (GCaMP6f); details: NMM 100 μM; AITC 33 μM; dTom control cells for comparison
[5] = tested on: mouse primary cortical neurons; assay: GCaMP6f calcium imaging of primary cortical neurons under ultrasound or AITC
hsTRPA1 [6] = target: T1, hsTRPA1
[7] = tested on: Human Embryonic Kidney 293T (HEK) cells; assay: AITC (chemical agonist) GCaMP6f response of HEK cells transfected with hsTRPA1 variants; details: AITC 33 μM
[8] = agent added 45 minutes before, HC-030031 40 μM, MCD 5 mM, nocodazole 5 μM, latrunculin A 1 μM, paclitaxel 600 nM, versus vehicle
[9] = control neurons without hsTRPA1
[10] = A784168 2 μM, BAPTA 30 μM, versus vehicle

For “mouse homolog: mouse TRPA1 (Mus musculus; RefSeq NM_177781)”, the “Response to ultrasound stimulation (cells activated, GCaMP6f)” value (from here on “Response to ultrasound stimulation”) [1] was “only a third as responsive as hsTRPA1”.

In the case of “mouse-Piezol: mouse Piezo1 channel expressed in HEK cells”, the “Response to ultrasound stimulation” value [1] is reported as “not”.

With methyl-beta-cyclodextrin [MCD] the “Effect on ultrasound responses of hsTRPA1-expressing HEK cells (GCaMP6f peak amplitude)” value (“Effect … (GCaMP6f peak amplitude)” for short) (hsTRPA1 [2]; [8]) was “attenuated hsTRPA1 responses to ultrasound” and the “Effect on AITC-triggered responses of hsTRPA1-expressing HEK cells” value (“Effect on AITC-triggered responses” for short) (hsTRPA1 [3]) was “did not affect the response to AITC”.

`Clc1cccc(Cl)c1CSc1nnc(-c2cnccn2)s1` [yoda-1] was tested, and the “Response of HEK cells expressing mouse Piezo1 to compound” value (mouse-Piezol) was “respond”.

`C=CCN=C=S` [AITC, allyl isothiocyanate] was tested, and the “Activation of TRPA1-expressing HEK cells by agonist (GCaMP6f)” value (hsTRPA1 [4]) was “specifically activated TRPA1-expressing HEK cells” and the “Response of Cre-only control neurons to agonist” value [5, 9] was “did not respond”.

With `C/C1=C/C(=O)O[C@@H]2C[C@@H](CC[C@H](C)/C=C\C=C\CC1)O[C@@](O)([C@@H]1CSC(=O)N1)C2` [latrunculin A] the “Effect … (GCaMP6f peak amplitude)” value (hsTRPA1 [2]; [8]) was “reduced the ultrasound responses” and the “Effect on AITC-triggered responses” value (hsTRPA1 [3]) was “significantly reduced”.

In the case of “GsMTx-4-4: GsMTx-4, applied to Piezo1- and TRPV1-expressing HEK cells (GCLEFWWKCNPNDDKCCRPKLKCSKLFKLCNFSF; ends and bridges not checked; cysteine pairing not given here; UniProt Q7YT39 47-80, looked up)”, the “Response of HEK cells expressing mouse Piezo1 to compound” value (mouse-Piezol) is reported as “not”.

With `C/C1=C\[C@H](C)C[C@H](C)OC(=O)C[C@H](c2ccc(O)cc2)NC(=O)[C@@H](Cc2c(Br)[nH]c3ccccc23)N(C)C(=O)[C@H](C)NC(=O)[C@@H](C)C1` [jasplakinolide] the “Effect on AITC-triggered responses” value (hsTRPA1 [3]) was “significantly reduced”.

In the case of `C=C1[C@@H](C)[C@H]2[C@H](Cc3ccccc3)NC(=O)[C@]23[C@H](OC(C)=O)/C=C/[C@@](C)(O)C(=O)[C@@H](C)C/C=C/[C@H]3[C@@H]1O` [cytochalasin D], the “Effect … (GCaMP6f peak amplitude)” value (hsTRPA1 [2]; [8]) is reported as “reduced the ultrasound responses” and the “Effect on AITC-triggered responses” value (hsTRPA1 [3]) is reported as “not to be altered”.

`CC(=O)O[C@H]1C(=O)[C@@]2(C)[C@H]([C@H](OC(=O)c3ccccc3)[C@]3(O)C[C@H](OC(=O)[C@H](O)[C@@H](NC(=O)c4ccccc4)c4ccccc4)C(C)=C1C3(C)C)[C@]1(OC(C)=O)CO[C@@H]1C[C@@H]2O` [Taxol, paclitaxel] was tested, and the “Effect … (GCaMP6f peak amplitude)” value (hsTRPA1 [2]; [8]) was “no significant effect” and the “Effect on AITC-triggered responses” value (hsTRPA1 [3]) was “significantly reduced”.

In the case of `O=C(O)CN(CC(=O)O)c1ccccc1OCCOc1ccccc1N(CC(=O)O)CC(=O)O` [BAPTA], the “Effect on ultrasound responses of hsTRPA1-expressing neurons (GCaMP6f)” value (“Effect on ultrasound responses … (GCaMP6f)” below) [5, 10] is reported as “blocked neuronal responses to ultrasound”.

For `COC(=O)Nc1nc2ccc(C(=O)c3cccs3)cc2[nH]1` [nocodazole], the “Effect … (GCaMP6f peak amplitude)” value (hsTRPA1 [2]; [8]) was “no significant effect” and the “Effect on AITC-triggered responses” value (hsTRPA1 [3]) was “not to be altered”.

`CN1C(=O)C=CC1=O` [NMM, N-methylmaleimide] was tested, and the “Activation of TRPA1-expressing HEK cells by agonist (GCaMP6f)” value (hsTRPA1 [4]) was “specifically activated TRPA1-expressing HEK cells”.

In the case of `CC(C)c1ccc(NC(=O)Cn2cnc3c2c(=O)n(C)c(=O)n3C)cc1` [HC-030331], the “Effect … (GCaMP6f peak amplitude)” value (hsTRPA1 [2]) is reported as “inhibited”, the “Effect on ultrasound-triggered membrane events (mean peak amplitude)” value (hsTRPA1 [6]) is reported as “attenuated” and the “Effect on ultrasound responses … (GCaMP6f)” value [5, 10] is reported as “significantly attenuated”. For the same molecule, the “Effect on ultrasound-evoked activity of control (Cre) neurons” value [5, 9] was “without affecting”.

`NC1=N[C@H](O)[C@H]2[C@H]3O[C@]4(O)O[C@@H]([C@@H](O)[C@@]2(N1)[C@@H]4O)[C@]3(O)CO` [tetrodotoxin] was tested, and the “Effect on ultrasound responses … (GCaMP6f)” value [5] was “partially blocked” and the “Effect on ultrasound-evoked activity of control (Cre) neurons” value [5] was “completely abolishing responses”.

B1: Y785S: hsTRPA1 mutant with TM2 CRAC domain disrupted, Tyr785 replaced with Ser (protein, UniProt O75762 1-1119, looked up, variant Y785S)
Transient receptor potential …: MKRSLRKMWRPGEKKEPQGVVYEDVPDDTEDFKESLKVVFEGSAYGLQNFNKQKKLKRCDDMDTFFLHYAAAEGQIELMEKITRDSSLEVLHEMDDYGNTPLHCAVEKNQIESVKFLLSRGANPNLRNFNMMAPLHIAVQGMNNEVMKVLLEHRTIDVNLEGENGNTAVIIACTTNNSEALQILLKKGAKPCKSNKWGCFPIHQAAFSGSKECMEIILRFGEEHGYSRQLHINFMNNGKATPLHLAVQNGDLEMIKMCLDNGAQIDPVEKGRCTAIHFAATQGATEIVKLMISSYSGSVDIVNTTDGCHETMLHRASLFDHHELADYLISVGADINKIDSEGRSPLILATASASWNIVNLLLSKGAQVDIKDNFGRNFLHLTVQQPYGLKNLRPEFMQMQQIKELVMDEDNDGCTPLHYACRQGGPGSVNNLLGFNVSIHSKSKDKKSPLHFAASYGRINTCQRLLQDISDTRLLNEGDLHGMTPLHLAAKNGHDKVVQLLLKKGALFLSDHNGWTALHHASMGGYTQTMKVILDTNLKCTDRLDEDGNTALHFAAREGHAKAVALLLSHNADIVLNKQQASFLHLALHNKRKEVVLTIIRSKRWDECLKIFSHNSPGNKCPITEMIEYLPECMKVLLDFCMLHSTEDKSCRDYYIEYNFKYLQCPLEFTKKTPTQDVIYEPLTALNAMVQNNRIELLNHPVCKEYLLMKWLAYGFRAHMMNLGSYCLGLIPMTILVVNIKPGMAFNSTGIINETSDHSEILDTTNSYLIKTCMILVFLSSIFGSCKEAGQIFQQKRNYFMDISNVLEWIIYTTGIIFVLPLFVEIPAHLQWQCGAIAVYFYWMNFLLYLQRFENCGIFIVMLEVILKTLLRSTVVFIFLLLAFGLSFYILLNLQDPFSSPLLSIIQTFSMMLGDINYRESFLEPYLRNELAHPVLSFAQLVSFTIFVPIVLMNLLIGLAVGDIAEVQKHASLKRIAMQVELHTSLEKKLPLWFLRKVDQKSTIVYPNKPRSGGMLFHIFCFLFCTGEIRQEIPNADKSLEMEILKQKYRLKDLTFLLEKQHELIKLIIQKMEIISETEDDDSHCSFQDRFKKEQMEQRNSRWNTVLRAVKAKTHHLEP
For B1, the “GCaMP6f peak amplitude upon ultrasound stimulation, variant versus full-length hsTRPA1” value ([1]; transfected HEK cells) was “complete loss of ultrasound sensitivity” and the “GCaMP6f peak amplitude upon treatment with AITC, variant versus full-length hsTRPA1” value [7] was “without affecting responsiveness to AITC”.

B2: human-TRPV1: human TRPV1 channel expressed in HEK cells (protein, UniProt Q8NER1 1-839, looked up)
Transient receptor potential …: MKKWSSTDLGAAADPLQKDTCPDPLDGDPNSRPPPAKPQLSTAKSRTRLFGKGDSEEAFPVDCPHEEGELDSCPTITVSPVITIQRPGDGPTGARLLSQDSVAASTEKTLRLYDRRSIFEAVAQNNCQDLESLLLFLQKSKKHLTDNEFKDPETGKTCLLKAMLNLHDGQNTTIPLLLEIARQTDSLKELVNASYTDSYYKGQTALHIAIERRNMALVTLLVENGADVQAAAHGDFFKKTKGRPGFYFGELPLSLAACTNQLGIVKFLLQNSWQTADISARDSVGNTVLHALVEVADNTADNTKFVTSMYNEILMLGAKLHPTLKLEELTNKKGMTPLALAAGTGKIGVLAYILQREIQEPECRHLSRKFTEWAYGPVHSSLYDLSCIDTCEKNSVLEVIAYSSSETPNRHDMLLVEPLNRLLQDKWDRFVKRIFYFNFLVYCLYMIIFTMAAYYRPVDGLPPFKMEKTGDYFRVTGEILSVLGGVYFFFRGIQYFLQRRPSMKTLFVDSYSEMLFFLQSLFMLATVVLYFSHLKEYVASMVFSLALGWTNMLYYTRGFQQMGIYAVMIEKMILRDLCRFMFVYIVFLFGFSTAVVTLIEDGKNDSLPSESTSHRWRGPACRPPDSSYNSLYSTCLELFKFTIGMGDLEFTENYDFKAVFIILLLAYVILTYILLLNMLIALMGETVNKIAQESKNIWKLQRAITILDTEKSFLKCMRKAFRSGKLLQVGYTPDGKDDYRWCFRVDEVNWTTWNTNVGIINEDPGNCEGVKRTLSFSLRSSRVSGRHWKNFALVPLLREASARDRQSAQPEEVYLRQFSGSLKPEDAEVFKSPAASGEK
For B2, the “Response to ultrasound stimulation” value [1] was “not”.
